The term IC50 denotes the concentration that inhibits the measured activity by half. A low value points to higher potency.

Non-standard residues stand in square brackets, D forms with d. Residues, ends and D or L forms follow the SMILES beside them. *: point of attachment. Hyp = O=C(O)[C@@H]1C[C@@H](O)CN1; Chg = N[C@H](C(=O)O)C1CCCCC1; Nva = CCC[C@H](N)C(=O)O; X1 = c1ccc2cc(C*)ccc2c1 Bounds are passed on as bounds.

Among the data in BindingDB's records for doi:10.1016/s0960-894x(00)00465-0 (Boehringer Ingelheim Pharmaceuticals, 2001) are IC50 values, retold here.

The nature of this test: Compound was evaluated for its inhibitory activity against porcine pancreatic elastase (PPE).

On to `CCC[C@H](NC(=O)[C@@H]1C[C@@H](OCc2ccc3ccccc3c2)CN1C(=O)[C@@H](NC(=O)[C@@H](NC(=O)[C@@H](CCC(=O)O)NC(=O)[C@H](CC(=O)O)NC(C)=O)C1CCCCC1)C(C)C)C(=O)O` [(S)-2-{[(2S,4R)-1-((S)-2-{(S)-2-[(R)-2-((S)-2-Acetylamino-3-carboxy-propionylamino)-4-carboxy-butyrylamino]-2-cyclohexyl-acetylamino}-3-methyl-butyryl)-4-(naphthalen-2-ylmethoxy)-pyrrolidine-2-carbonyl]-amino}-pentanoic acid] (Ac-D[dE][Chg]V[Hyp](X1)[Nva]-OH), for which the IC50 was > 300 µM.
